Consider 5 compounds from patent US5679712A, “Substituted benzoylguanidines, process for their preparation, their use as a pharmaceutical or diagnostic, and pharmaceutical containing them” (priority 1995, dated 1997).

Structures can show the parent of a compound that is named as a salt.

The term IC50 denotes the concentration needed to halve the response being measured.

The target of assay [1] is T1, Na^+ /H^+ exchanger of rabbit erythrocytes (Oryctolagus cuniculus, UniProt P23791).
T1 construct: endogenous in cells; host or cells: erythrocytes (whole blood samples) of New Zealand White rabbits (Ivanovas) fed 2% cholesterol
T1 sequence (P23791 whole entry): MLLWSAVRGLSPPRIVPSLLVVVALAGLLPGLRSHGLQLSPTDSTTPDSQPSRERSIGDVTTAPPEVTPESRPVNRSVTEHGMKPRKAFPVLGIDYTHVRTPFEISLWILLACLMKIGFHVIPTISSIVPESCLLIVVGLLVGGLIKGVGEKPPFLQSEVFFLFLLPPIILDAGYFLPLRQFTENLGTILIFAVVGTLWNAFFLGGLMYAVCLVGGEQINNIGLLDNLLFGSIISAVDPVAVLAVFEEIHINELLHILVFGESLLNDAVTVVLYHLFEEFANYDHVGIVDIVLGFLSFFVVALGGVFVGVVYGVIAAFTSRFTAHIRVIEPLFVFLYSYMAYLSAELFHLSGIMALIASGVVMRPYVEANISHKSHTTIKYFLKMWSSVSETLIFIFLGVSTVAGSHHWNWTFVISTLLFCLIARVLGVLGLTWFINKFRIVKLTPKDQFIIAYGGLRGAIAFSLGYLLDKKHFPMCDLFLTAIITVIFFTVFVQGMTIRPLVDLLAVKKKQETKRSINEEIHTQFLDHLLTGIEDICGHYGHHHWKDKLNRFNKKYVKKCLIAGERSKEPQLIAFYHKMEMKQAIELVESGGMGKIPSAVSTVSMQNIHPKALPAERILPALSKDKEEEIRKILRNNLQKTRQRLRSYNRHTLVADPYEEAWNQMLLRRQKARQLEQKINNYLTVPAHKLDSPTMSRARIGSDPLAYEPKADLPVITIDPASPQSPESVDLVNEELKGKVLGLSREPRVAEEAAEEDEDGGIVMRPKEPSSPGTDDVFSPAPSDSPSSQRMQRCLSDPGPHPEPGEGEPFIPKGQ
Briefly: Inhibition of the Na^+/H^+ exchanger of rabbit erythrocytes (amiloride-sensitive sodium influx, flame photometry). It counts as cell-based, rabbit (New Zealand White). The settings on record: cholesterol-fed rabbits, hyperosmolar salt/sucrose medium, pH 7.4, 37° C. The text has this:
Inhibition of the Na^+ /H^+ exchanger of rabbit erythrocytes
New Zealand White rabbits (Ivanovas) were given a standard diet containing 2% cholesterol for six weeks in order to activate Na^+ /H^+ exchange and thus to be able to determine, by flame photometry, the influx of Na^+ into the erythrocytes by way of Na^+ /H^+ exchange. The blood was removed from the aural arteries and rendered incoagulable with 25 IU of potassium heparin. A portion of each sample was used to determine the hematocrit in duplicate by centrifugation. Aliquots of 100 μl in each case were used for measuring the initial content of Na^+ in the erythrocytes.
In order to determine the amiloride-sensitive sodium influx, 100 μl of each blood sample were in each case incubated in 5 ml of a hyperosmolar salt/sucrose medium (mmol/l: 140 NaCl, 3 KCl, 150 sucrose, 0.1 ouabain, 20 tris-hydroxymethylaminomethane) at pH 7.4 and 37° C. After that, the erythrocytes were washed three times with ice-cold MgCl2 /ouabain solution (mmol/l: 112 MgCl2, 0.1 ouabain), and hemolyzed in 2.0 ml of distilled water. The intracellular content of sodium was determined by flame photometry.
The net influx of Na^+ was calculated from the difference between the initial sodium values and the sodium content of the erythrocytes following incubation. The amiloride-inhibitable sodium influx was obtained from the difference in the sodium content of the erythrocytes following incubation with and without 3×10^-4 mol/l amiloride. The same procedure was used for the compounds according to the invention.

Assay [2] deals with rats' hearts. The settings on record: isolated rat hearts; cited from earlier work.

Consider `CC(=O)c1cc(C(=O)N=C(N)N)ccc1OCc1ccccc1` [Example 4, 3-Acetyl-4-benzyloxybenzoylguanidine hydrochloride], for which, in assay [1], the IC50 came out at 1200 nM. In the case of `CCN(c1nc(N)c(C(=O)NC(=N)N)nc1Cl)C(C)C` [ethylisopropylamiloride], the “potency relative to amiloride, ventricular fibrillation model” value in assay [2] is “even more potent than amiloride itself”.

Consider `CC(=O)c1cc(C(=O)N=C(N)N)ccc1O` [Example 1, 3-Acetyl-4-hydroxybenzoylguanidine], for which, in assay [1], the half-maximal inhibitory concentration (IC50) amounted to 2000 nM. Take `CC(=O)c1cc(C(=O)N=C(N)N)ccc1OC(C)C` [Example 3, 3-Acetyl-4-isopropoxybenzoylguanidine hydrochloride]: in assay [1], the IC50 worked out at 1100 nM. On the same count and under the same terms, under `COc1ccc(C(=O)N=C(N)N)cc1C(C)=O` [Example 2, 3-Acetyl-4-methoxybenzoylguanidine hydrochloride] stands 1000 nM.
